Laboratory results from article doi:10.1101/2020.05.05.079848v2 (biorxiv, 2020).

Legend:
[1] = target: SARS-CoV-2 M^pro-N (N-terminal domain with the catalytic core) (Severe acute respiratory syndrome coronavirus 2, UniProt P0DTD1); format: binding; conditions: catalytic pocket, probably more than one site
[2] = target: SARS-CoV-2 M^pro (main protease, 3CL^pro), full-length (Severe acute respiratory syndrome coronavirus 2, UniProt P0DTD1); test: fluorescent peptide cleavage assay, two doses; format: biochemical; conditions: unreliable; estimated from two doses; limited by low aqueous solubility

Row | SMILES | 1H-15N HSQC chemical shift perturbation [1] | IC50 [2]
1 | O=C(O)c1cccnc1 [niacin] | niacin perturbs H41, G143, N51, and V186 | 
2 | CSc1nc2cc(Cl)c(Oc3cccc(Cl)c3Cl)cc2[nH]1 [triclabendazole] |  | ~ 70 μM
